Values after ≈ are worked out from the molar mass of the structure shown. Values joined by “and” are separate entries in the source; they are usually repeats but may differ in a detail not shown here. Equal values may be shown once. Where a name gives a salt, the structure may show the parent alone. Read-outs that look alike come from different tables or passages of the source.
Columns and labels:
[1] = cited from earlier work
[2] = pKa of counterions and active agents; assay type: physicochemical; conditions: active vs its counterion; read-out: difference between the pKa of the active and the counterion
[3] = pH 6.5; cited from earlier work
[4] = counterion, first value of the cell, some values marked estimated

| SMILES | pKa [1, 4] | also measured |
| --- | --- | --- |
| O=S(=O)(O)c1ccc2ccccc2c1 [2-Naphthalenesulfonate, 2-naphthalene sulfonate] | 0.17 |  |
| O=C(CC(C(=O)OC1CCCCC1)S(=O)(=O)O)OC1CCCCC1 (stereo not drawn) [1,4-dicyclohexyloxy-1,4-dioxobutane-2-sulfonate] | <1 estimated |  |
| COc1ccc(-c2ccc3cc(C(=O)O)ccc3c2)cc1C12CC3CC(CC(C3)C1)C2 [Adapalene, reference compound] |  | pKa [2]: 5.2; pKa ([1]; active agent): 4.2 |
| c1ccc(CNCCNCc2ccccc2)cc1 [N,N′-dibenzylethylene diamine] | 6.2 |  |
| CC(C)CCOC(=O)CC(C(=O)OCCC(C)C)S(=O)(=O)O (stereo not drawn) [1,4-diisopentyloxy-1,4-dioxobutane-2-sulfonate] | <1 estimated |  |
| CC(C)(C)c1ccc2c(S(=O)(=O)O)c(C(C)(C)C)ccc2c1S(=O)(=O)O [2,6-di-tert-butylnaphthalene-1,5-disulfonate] | −2.32 | pKa ([1]; counterion, second value printed in the same cell): −3.05 |
| CC(C)(C)c1ccc2c(S(=O)(=O)O)c(C(C)(C)C)ccc2c1 [2,6-di-tert-butylnaphthalene-1-sulfonate] | −2.48 |  |
| CC(C)CCC[C@@H](C)[C@H]1CC[C@H]2[C@@H]3CC=C4CC(OS(=O)(=O)O)CC[C@]4(C)[C@H]3CC[C@]12C (stereo partly drawn) [Cholesteryl sulfate, cholesteryl sulfate] | <1 estimated |  |
| Cc1c(C)c2c(c(C)c1OP(=O)(O)O)CCC(C)(CCCC(C)CCCC(C)CCCC(C)C)O2 (stereo not drawn) [Tocopherol phosphate, tocopherol phosphate] | <2 estimated |  |
| CC(C)c1ccc2c(c1)CC[C@H]1[C@](C)(CNCCNC[C@]3(C)CCC[C@]4(C)c5ccc(C(C)C)cc5CC[C@@H]34)CCC[C@]21C [N^1,N^2-bis(((1 R,4aS,10aR)-7-isopropyl-1,4a-dimethyl-1,2,3,4,4a,9,10,10a-octahydrophenanthren-1-yl)methyl)ethane-1,2-diamine] | 6.6 |  |
| CC(C)CCC[C@@H](C)[C@H]1CC[C@H]2[C@@H]3CC=C4C[C@@H](OP(=O)(O)O)CC[C@]4(C)[C@H]3CC[C@]12C [Cholesteryl phosphate, cholesteryl phosphate] | <2 estimated |  |
| Cc1c(C)c2c(c(C)c1OS(=O)(=O)O)CCC(C)(CCCC(C)CCCC(C)CCCC(C)C)O2 (stereo not drawn) [Tocopherol sulfate, tocopherol sulfate] | <1 estimated |  |
| C#Cc1cccc(Nc2ncnc3cc(OCCOC)c(OCCOC)cc23)c1 [Erlotinib, N-(3-ethynylphenyl)-6,7-bis(2-methoxyethoxy) quinazolin-4-amine, reference compound] |  | pKa [2]: ≥ 4.4; solubility in phosphate buffered saline [3]: 1 µg/mL (≈ 2.54 µM); pKa ([1]; active agent): 5.42 and 5.4 |
| c1ccc(CCNCc2ccccc2)cc1 [N-(benzyl)-2-phenylethan-1-amine] | 9.4 |  |
